# Reference: patent US12259388B2, “Cofilin phosphorylation for quantifying CD4 T cell damage and predict CD4 T cell recovery from anti-retroviral therapy” (VIRONGY L.L.C., priority 2018, dated 2025)
# Legend:
# [1] = system: cofilin phosphorylation in A3R5.7 CD4 T cells; assay: Western blot for p-cofilin and cofilin after R10015 treatment; format: cell-based, human
# Protocol: (§1) FIG. 3. Quantification of effects of cofilin hyperactivation on T cell migration. (A) A3R5.7 T cells were treated with different dosages of R10015 for one hour. Phospho-cofilin and total cofilin were quantified by Western blot. (B) The relative ratio of p-cofilin/cofilin in response to R10015 treatment was plotted (n=4 independent experiments). (C) R10015 inhibits cofilin phosphorylation and T cell chemotaxis in response to CXCL12. A3R5.7 cells were treated with different dosages of R10015 for one hour, and then added to the upper chamber of a 24-well transwell plate. The lower chamber was filled with CXCL12 (40 ng/ml), and cell migration to the lower chamber was quantified (n=3 independent experiments). (D) The linear correlation between T cell migration and levels of cofilin phosphorylation. The X-axis is the relative ratio of p-cofilin/cofilin derived from (B); the Y-axis is the number of migrating cells derived from (C).
# (§2) T cell migration is controlled by cycles of cofilin phosphorylation and dephosphorylation, which are regulated by the LIM-domain kinase (LIMK) through serine 3 phosphorylation (27, 54). To quantify the direct effect of cofilin hyperactivation on T cell migration, we used a recently discovered LIMK inhibitor, R10015 (55), to block cofilin phosphorylation in A3R5.7 CD4 T cells. We then performed CXCL12-induced T cell chemotaxis in the presence of cofilin hyperactivation. […]
# [2] = system: A3R5.7 CD4 T cells; assay: CXCL12-induced T cell chemotaxis (transwell) assay; format: cell-based, human; settings: CXCL12 40 ng/ml
# Protocol: as §1, with “(D) The linear correlation between T cell migration and levels of cofilin phosphorylation. The X-axis is the relative ratio of p-cofilin/cofilin derived from (B); the Y-axis is the number of migrating cells derived from (C).” left out
# as §2, with “cells.” for “cells. We then performed CXCL12-induced T cell chemotaxis in the presence of cofilin hyperactivation.”
# A half million cells were resuspended into 100 μl RPMI-1640 medium and then added to the upper chamber of a 24-well transwell plate (Corning, Corning, NY). […] The plate was incubated at 37° C. for 2 hours, and then the upper chamber was removed and cells in the lower chamber were counted. […]
# [3] = system: HIV-1; settings: cited from earlier work
# [4] = system: cofilin, LIMK in resting CD4 T cells; settings: cited from earlier work; for effect on cofilin activation / phosphorylation: resting CD4 T cells
Compound,"inhibition of cofilin phosphorylation ([1]; A3R5.7 CD4 T cells, different dosages of R10015 for one hour, ratio p-cofilin/cofilin)","cofilin phosphorylation reduced to ([1]; at around 15 M of R10015, A3R5.7 cells, one hour)","decrease in cell migration ([2]; A3R5.7 CD4 T cells, at 50% reduction in cofilin phosphorylation)",T cell chemotaxis in response to CXCL12 ([2]; A3R5.7 cells treated one hour),effect on HIV latent infection of resting CD4 T cells [3],effect on cofilin activation / phosphorylation [4],effect on LIMK ([4]; transient treatment of resting CD4 T cells)
COC(=O)c1ccc2nc(C3CCN(c4ncnc5[nH]cc(Cl)c45)CC3)[nH]c2c1 [R10015],dosage-dependent inhibition of cofilin phosphorylation,around 50%,20-40%,inhibits,–,–,–
C=C1[C@@H](O)[C@@H]2O[C@]3(CC[C@H](/C=C/[C@@H](C)[C@@H]4CC(C)=C[C@@]5(O[C@H](C[C@@](C)(O)C(=O)O)CC[C@H]5O)O4)O3)CC[C@H]2O[C@@H]1[C@@H](O)C[C@H](C)[C@H]1O[C@@]2(CCCCO2)CC[C@H]1C [okadaic acid],–,–,–,–,promotes HIV latent infection,increase cofilin phosphorylation,activates LIMK
CN[C@@H]1C[C@H]2O[C@@](C)([C@@H]1OC)n1c3ccccc3c3c4c(c5c6ccccc6n2c5c31)C(=O)NC4 [staurosporine],–,–,–,–,enhances HIV latent infection,induce gradual cofilin activation,–
pertussis toxin,–,–,–,–,inhibits,inhibits cofilin activation,–
